Patent US10993999B2, “Materials and methods for producing improved lentiviral vector particles” (IMMUNE DESIGN CORP., priority 2012, dated 2021)
Like-named read-outs stand apart in the source and are kept apart here.

Tested on: PBMC-derived human dendritic cells
Assay type: cell-based

Cc1ccnc2c1NC(=O)c1cccnc1N2C1CC1 [Nevirapine]
effect of reverse-transcriptase inhibitor on transduction (integration-competent VSV-G-pseudotyped particles, 20 ng p24): inhibited

Cc1cn([C@H]2C[C@H](N=[N+]=[N-])[C@@H](CO)O2)c(=O)[nH]c1=O [AZT]
effect of reverse-transcriptase inhibitor on transduction (integration-deficient VSV-G-pseudotyped particles, 200 ng p24): inhibited

B1: Vpx: SIVmac Vpx protein (SEQ ID NO: 44), SAMHD1 inhibitor packaged into the lentivirus particles (protein)
chain: MSDPRERIPPGNSGEETIGEAFEWLNRTVEEINREAVNHLPRELIFQVWQRSWEYWHDEQGMSQSYVKYRYLCLMQKALFMHCKKGCRCLGEGHGAGGWRPGPPPPPPPGLA
modifications: Simian immunodeficiency virus
role of Vpx in transduction of human dendritic cells (integration-competent VSV-G-pseudotyped lentiviral vector particles): enhanced | role of Vpx in transduction of human dendritic cells (integration-deficient VSV-G-pseudotyped lentiviral particles): required
